Results from the supplement of paper PMC8976852.
± gives the standard deviation of the averaged measurements.

Assays:
Assay in all cases: activity (1 - area under the dose-response curve within the screened range) (fraction); higher = more sensitive
Conditions in all cases: treatment time: 72 h
HCM-SANG-0266-C20 = tested on: HCM-SANG-0266-C20 (colorectal cancer organoid)
Procedure: (§1)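 Patient-derived cancer organoids (colorectal and oesophageal, HCM-SANG models) were grown for up to 6 months in 5% or 80% ECM (BME-2), then seeded in 384-well plates on an ECM layer and treated with 72 compounds for 3 days. Each compound used a 7-point half-log dilution series spanning a 1000-fold range, in technical triplicate and biological duplicate. Dose-response curves were fitted with a non-linear mixed effects model; fits with RMSE > 0.3 were removed, and activity = 1 - AUC within the screened dose range (0 = no activity, 1 = maximum).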

HCM-SANG-0291-C15 = tested on: HCM-SANG-0291-C15 (oesophageal cancer organoid)
Procedure: as §1

HCM-SANG-0270-C20 = tested on: HCM-SANG-0270-C20 (colorectal cancer organoid)
Procedure: as §1

HCM-SANG-0532-C20 = tested on: HCM-SANG-0532-C20 (colorectal cancer organoid)
Procedure: as §1

[1] = ECM percentage in culture prior to screening 5 %
[2] = ECM percentage in culture prior to screening 80 %

| SMILES | activity (HCM-SANG-0266-C20; [1]) | activity (HCM-SANG-0266-C20; [2]) | activity (HCM-SANG-0291-C15; [1]) | activity (HCM-SANG-0291-C15; [2]) | activity (HCM-SANG-0270-C20; [1]) | activity (HCM-SANG-0270-C20; [2]) | activity (HCM-SANG-0532-C20; [1]) | activity (HCM-SANG-0532-C20; [2]) |
| --- | --- | --- | --- | --- | --- | --- | --- | --- |
| CC(C)(C)c1nc(-c2cccc(NS(=O)(=O)c3c(F)cccc3F)c2F)c(-c2ccnc(N)n2)s1 [Dabrafenib] | 0.138 ± 0.084 | 0.0841 ± 0.044 | 0.0243 ± 0.0054 | 0.0207 ± 0.0019 | 0.035 ± 0.012 | 0.0243 ± 0.0073 | 0.0306 ± 0.018 | 0.0604 ± 0.032 |
| C[C@]12CC[C@@H]3c4ccc(O)cc4C[C@@H](CCCCCCCCC[S+]([O-])CCCC(F)(F)C(F)(F)F)[C@H]3[C@@H]1CC[C@@H]2O (stereo not given in full) [Fulvestrant] | 0.0414 ± 0.019 | 0.0246 ± 0.0074 | 0.0285 ± 0.013 | 0.0212 ± 0.0031 | 0.0292 ± 0.0081 | 0.0268 ± 0.015 | 0.022 ± 0.0021 | 0.0273 ± 0.0072 |
| COc1cccc2cc(-c3nc([C@H]4CC[C@H](C(=O)O)CC4)n4ncnc(N)c34)[nH]c12 [OSI-027] | 0.141 ± 0.054 | 0.0937 ± 0.059 | 0.0395 ± 0.012 | 0.032 ± 0.014 | 0.0587 ± 0.034 | 0.0504 ± 0.036 | 0.0577 ± 0.024 | 0.0906 ± 0.013 |
| CCC1=C[C@@H]2CN(C1)Cc1c([nH]c3ccccc13)[C@@](C(=O)OC)(c1cc3c(cc1OC)N(C)[C@H]1[C@@](O)(C(=O)OC)[C@H](OC(C)=O)[C@]4(CC)C=CCN5CC[C@]31[C@@H]54)C2 [Vinorelbine] | 0.153 ± 0.031 | 0.153 ± 0.039 | 0.0831 ± 0.009 | 0.107 ± 0.024 | 0.0834 ± 0.05 | 0.095 ± 0.046 | 0.0815 ± 0.04 | 0.107 ± 0.011 |
| COc1cc(Nc2ncc3c(n2)-c2ccc(Cl)cc2C(c2c(F)cccc2OC)=NC3)ccc1C(=O)O [Alisertib] | 0.266 ± 0.08 | 0.31 ± 0.081 | 0.0593 ± 0.019 | 0.0714 ± 0.026 | 0.104 ± 0.078 | 0.124 ± 0.06 | 0.185 ± 0.063 | 0.148 ± 0.027 |
| c1cn2cc(-c3ccc4cn[nH]c4c3)nc(Nc3ccc(N4CCOCC4)cc3)c2n1 [Entospletinib] | 0.0298 ± 0.01 | 0.0227 ± 0.0068 | 0.0238 ± 0.0074 | 0.0204 ± 0.0022 | 0.0261 ± 0.0085 | 0.0204 ± 0.0032 | 0.0354 ± 0.019 | 0.0256 ± 0.0054 |
| CC(=O)O[C@H]1C(=O)[C@@]2(C)[C@H]([C@H](OC(=O)c3ccccc3)[C@]3(O)C[C@H](OC(=O)[C@H](O)[C@@H](NC(=O)c4ccccc4)c4ccccc4)C(C)=C1C3(C)C)[C@]1(OC(C)=O)CO[C@@H]1C[C@@H]2O [Paclitaxel] | 0.331 ± 0.06 | 0.317 ± 0.067 | 0.246 ± 0.044 | 0.27 ± 0.066 | 0.223 ± 0.051 | 0.218 ± 0.084 | 0.138 ± 0.058 | 0.256 ± 0.031 |
| O=c1cc(-c2cccc3c2Sc2ccccc2S3)oc(N2CCOCC2)c1 | 0.0362 ± 0.021 | 0.0433 ± 0.027 | 0.068 ± 0.034 | 0.0493 ± 0.031 | 0.0345 ± 0.015 | 0.0384 ± 0.0084 | 0.0709 ± 0.021 | 0.037 ± 0.01 |
| Cn1ncnc1[C@H]1c2n[nH]c(=O)c3cc(F)cc(c23)N[C@@H]1c1ccc(F)cc1 [Talazoparib] | 0.0908 ± 0.022 | 0.0937 ± 0.043 | 0.249 ± 0.036 | 0.275 ± 0.045 | 0.0426 ± 0.031 | 0.0374 ± 0.026 | 0.0688 ± 0.05 | 0.0443 ± 0.014 |
| CNC(=O)c1ccccc1Sc1ccc2c(/C=C/c3ccccn3)n[nH]c2c1 [Axitinib] | 0.147 ± 0.033 | 0.143 ± 0.047 | 0.0739 ± 0.021 | 0.056 ± 0.023 | 0.125 ± 0.03 | 0.109 ± 0.037 | 0.112 ± 0.021 | 0.135 ± 0.035 |
| CCNC(=O)c1noc(-c2cc(C(C)C)c(O)cc2O)c1-c1ccc(CN2CCOCC2)cc1 [Luminespib] | 0.319 ± 0.046 | 0.322 ± 0.024 | 0.0294 ± 0.011 | 0.0466 ± 0.038 | 0.111 ± 0.061 | 0.0622 ± 0.041 | 0.338 ± 0.087 | 0.291 ± 0.014 |
| COc1ccc(C2=N[C@@H](c3ccc(Cl)cc3)[C@@H](c3ccc(Cl)cc3)N2C(=O)N2CCNC(=O)C2)c(OC(C)C)c1 [Nutlin-3a (-)] | 0.218 ± 0.046 | 0.193 ± 0.064 | 0.0424 ± 0.021 | 0.0359 ± 0.015 | 0.161 ± 0.034 | 0.0722 ± 0.033 | 0.148 ± 0.039 | 0.203 ± 0.054 |
| CC(=O)O[C@@]12CO[C@@H]1C[C@H](O)[C@@]1(C)C(=O)[C@H](O)C3=C(C)[C@@H](OC(=O)[C@H](O)[C@@H](NC(=O)OC(C)(C)C)c4ccccc4)C[C@@](O)([C@@H](OC(=O)c4ccccc4)[C@H]21)C3(C)C [Docetaxel] | 0.237 ± 0.033 | 0.19 ± 0.031 | 0.161 ± 0.058 | 0.188 ± 0.05 | 0.0873 ± 0.042 | 0.14 ± 0.08 | 0.128 ± 0.028 | 0.158 ± 0.017 |
| Cc1nc(NC(=O)N2CCC[C@H]2C(N)=O)sc1-c1ccnc(C(C)(C)C(F)(F)F)c1 [Alpelisib] | 0.13 ± 0.052 | 0.0656 ± 0.019 | 0.0264 ± 0.0063 | 0.0261 ± 0.011 | 0.036 ± 0.027 | 0.0216 ± 0.0057 | 0.0918 ± 0.087 | 0.0904 ± 0.033 |
| CNC(=O)CN1CCC(Oc2cc3c(Nc4cccc(Cl)c4F)ncnc3cc2OC)CC1 [Sapitinib] | 0.255 ± 0.081 | 0.121 ± 0.1 | 0.207 ± 0.076 | 0.159 ± 0.025 | 0.236 ± 0.12 | 0.139 ± 0.12 | 0.119 ± 0.038 | 0.179 ± 0.043 |
| Cc1cc([C@@H](C)Nc2ccccc2C(=O)O)c2nc(N3CCOCC3)cc(=O)n2c1 [AZD6482] | 0.042 ± 0.03 | 0.0421 ± 0.017 | 0.0199 ± 0.0028 | 0.0269 ± 0.0093 | 0.0274 ± 0.021 | 0.0245 ± 0.008 | 0.0367 ± 0.021 | 0.0291 ± 0.011 |
| CCc1cncnc1N1CCN(Cc2nc3ccc(C(F)(F)F)cc3[nH]2)CC1 | 0.206 ± 0.033 | 0.155 ± 0.029 | 0.0688 ± 0.038 | 0.0744 ± 0.019 | 0.127 ± 0.026 | 0.162 ± 0.031 | 0.222 ± 0.04 | 0.426 ± 0.041 |
| Cc1nc(Nc2ncc(C(=O)Nc3c(C)cccc3Cl)s2)cc(N2CCN(CCO)CC2)n1 [Dasatinib] | 0.129 ± 0.069 | 0.0743 ± 0.054 | 0.0426 ± 0.021 | 0.0463 ± 0.017 | 0.0518 ± 0.018 | 0.045 ± 0.018 | 0.0937 ± 0.048 | 0.0525 ± 0.021 |
| CC(=O)c1c(C)c2cnc(Nc3ccc(N4CCNCC4)cn3)nc2n(C2CCCC2)c1=O [Palbociclib] | 0.0791 ± 0.052 | 0.0779 ± 0.05 | 0.0779 ± 0.033 | 0.0409 ± 0.013 | 0.0934 ± 0.03 | 0.0559 ± 0.031 | 0.0593 ± 0.019 | 0.102 ± 0.034 |
| Cc1cn(-c2cc(NC(=O)c3ccc(C)c(Nc4nccc(-c5cccnc5)n4)c3)cc(C(F)(F)F)c2)cn1 [Nilotinib] | 0.0558 ± 0.029 | 0.0445 ± 0.025 | 0.0659 ± 0.035 | 0.0726 ± 0.03 | 0.0302 ± 0.0098 | 0.0451 ± 0.018 | 0.111 ± 0.036 | 0.104 ± 0.021 |
